# Data taken from the PolyMetriX glass transition set.
row,glass transition temperature,Compound
1,72.40 °C,*/C=C(/*)CCCOC(=O)c1cc(-c2ccc(OC)cc2)ccc1-c1ccc(OC)cc1 (repeat unit)
2,215.00 °C,*/N=N/c1ccc(C(=O)NCCCCNC(=O)c2ccc(*)cc2)cc1 (repeat unit)
3,225.00 °C,*C(=O)NCCCCCCNC(=O)c1ccc(N2C(=O)c3ccc(*)cc3C2=O)cc1 (repeat unit)
4,178.00 °C,*C(=O)NCCN(CCNC(=O)c1ccc(N2C(=O)c3ccc(*)cc3C2=O)cc1)c1ccc(/C=C/c2ccc([N+](=O)[O-])cc2)cc1 (repeat unit)
5,235.00 °C,*C(=O)NCCNC(=O)c1ccc(N2C(=O)c3ccc(*)cc3C2=O)cc1 (repeat unit)
6,252.00 °C,*C(=O)NNC(=O)c1ccc([Si](c2ccccc2)(c2ccccc2)c2ccc(C(=O)NNC(=O)c3ccc(*)o3)cc2)cc1 (repeat unit)
7,334.00 °C,*C(=O)Nc1cc(NC(=O)c2ccc3[nH]c(-c4cc(-c5nc6cc(*)ccc6[nH]5)cc(N5C(=O)c6ccccc6C5=O)c4)nc3c2)cc(-c2nc3ccccc3[nH]2)c1 (repeat unit)
8,368.00 °C,*C(=O)Nc1cc(NC(=O)c2ccc3c(c2)C(=O)N(c2cc(-c4nc5ccccc5s4)cc(N4C(=O)c5ccc(*)cc5C4=O)c2)C3=O)cc(-c2nc3ccccc3[nH]2)c1 (repeat unit)
9,295.00 °C,*C(=O)Nc1ccc(-c2cc(-c3ccccc3)cc(-c3ccc(NC(=O)c4ccc5c(c4)C(=O)N(c4ccc(Oc6cccc7c(N8C(=O)c9ccc(*)cc9C8=O)cccc67)cc4)C5=O)cc3)n2)cc1 (repeat unit)
10,266.50 °C,*C(=O)c1cc(C(=O)c2ccc3c(c2)C(=O)N(c2cccc(N4C(=O)c5ccc(*)cc5C4=O)c2)C3=O)cc(-c2ccccc2)c1 (repeat unit)
11,311.00 °C,*C(=O)c1cc2c(cc1Cl)C(=O)N(c1cc(Cl)cc(N3C(=O)c4cc(*)c(Cl)cc4C3=O)c1)C2=O (repeat unit)
12,313.00 °C,*C(=O)c1cc2c(cc1Cl)C(=O)N(c1cccc(N3C(=O)c4cc(*)c(Cl)cc4C3=O)c1)C2=O (repeat unit)
13,238.00 °C,*C(=O)c1ccc2c(c1)C(=O)N(c1ccc(-c3ccc(NC(=O)c4cccc(C(=O)Nc5ccc(-c6ccc(N7C(=O)c8ccc(*)cc8C7=O)cc6)cc5)c4)cc3)cc1)C2=O (repeat unit)
14,-39.00 °C,*C/C=C/COC(=O)NCCCCCCNC(=O)O* (repeat unit)
15,9.00 °C,*CC(F)(F)C(F)(F)COC(=O)NCCCCCCNC(=O)O* (repeat unit)
16,39.00 °C,*CCCCCCCCCCCCCCCCOC(=O)NCCCCCCNC(=O)O* (repeat unit)
17,47.00 °C,*CCCCCCCCCCCCCCCCOC(=O)NCc1ccc(CNC(=O)O*)cc1 (repeat unit)
18,111.00 °C,*CCCCCCCCCCOc1ccc(-c2cc(-c3ccc(-c4ccccc4)cc3)c(-c3ccc(NC(=O)c4ccc(C(=O)Nc5ccc(-c6c(-c7ccc(-c8ccccc8)cc7)cc(-c7ccc(O*)cc7)cc6-c6ccc(-c7ccccc7)cc6)cc5)cc4)cc3)c(-c3ccc(-c4ccccc4)cc3)c2)cc1 (repeat unit)
19,58.00 °C,*CCCCCCCCCOC(=O)NCCCCCCNC(=O)O* (repeat unit)
20,68.00 °C,*CCCCCCCCNC(=O)NCc1ccc(CNC(=O)N*)cc1 (repeat unit)
21,110.00 °C,*CCCCCCCCNC(=O)c1ccc(C(=O)N*)c(Sc2ccccc2)c1 (repeat unit)

row,glass transition temperature,Compound
1,123.00 °C,*CCCCCCCCNC(=O)c1ccc(C(=O)N*)cc1 (repeat unit)
2,110.00 °C,*CCCCCCCCNC(=O)c1cccc(C(=O)N*)c1 (repeat unit)
3,116.00 °C,*CCCCCCNC(=O)c1ccc(C(=O)N*)c(Oc2ccc(Br)cc2)c1 (repeat unit)
4,113.00 °C,*CCCCCCNC(=O)c1ccc(C(=O)N*)c(Oc2ccc(F)cc2)c1 (repeat unit)
5,108.00 °C,*CCCCCCNC(=O)c1ccc(C(=O)N*)c(Oc2ccccc2)c1 (repeat unit)
6,121.00 °C,*CCCCCCNC(=O)c1ccc(C(=O)N*)c(Sc2ccccc2)c1 (repeat unit)
7,168.00 °C,*CCCCCCOC(=O)NCCCCCCNC(=O)O* (repeat unit)
8,121.50 °C,*CCCCCCOc1ccc(-c2cc(-c3ccc(-c4ccccc4)cc3)c(-c3ccc(NC(=O)c4ccc(C(=O)Nc5ccc(-c6c(-c7ccc(-c8ccccc8)cc7)cc(-c7ccc(O*)cc7)cc6-c6ccc(-c7ccccc7)cc6)cc5)cc4)cc3)c(-c3ccc(-c4ccccc4)cc3)c2)cc1 (repeat unit)
9,177.00 °C,*CCCCCNC(=O)c1ccc(C(=O)N*)cc1 (repeat unit)
10,190.00 °C,*CCCCCNc1nc(NCCCCCc2nc3cc(-c4ccc5[nH]c(*)nc5c4)ccc3[nH]2)nc(N(CC)CC)n1 (repeat unit)
11,33.00 °C,*CCCCCOC(=O)NCCCCCCNC(=O)O* (repeat unit)
12,33.50 °C,*CCCCOC(=O)NCCCCCCNC(=O)O* (repeat unit)
13,7.00 °C,*CCCCOC(=O)NCCCCNC(=O)O* (repeat unit)
14,55.00 °C,*CCCOC(=O)NCCCCCCNC(=O)O* (repeat unit)
15,31.90 °C,*CCN(CCOC(=O)NCCCCCCNC(=O)O*)c1ccccc1 (repeat unit)
16,8.00 °C,*CCNC(=O)Nc1ccc(Cc2ccc(NC(=O)NCCOCCO*)cc2)cc1 (repeat unit)
17,-31.00 °C,*CCOCCOCCOCCOCCOCCOC(=O)NCCCCCCNC(=O)O* (repeat unit)
18,163.00 °C,*CCOCCOCCOCCOc1ccc(C(=O)Nc2cc(NC(=O)c3ccc(O*)cc3)cc(-c3nc4ccccc4[nH]3)c2)cc1 (repeat unit)
19,33.00 °C,*COC(=O)NCCCCCCNC(=O)OCc1ccc(*)o1 (repeat unit)
20,170.00 °C,*NC(=O)NCCCCCCNC(=O)Nc1cccc(*)n1 (repeat unit)
21,270.00 °C,*NNC(=O)c1ccc(C(=O)NNC(=O)c2ccc([Si](c3ccccc3)(c3ccccc3)c3ccc(C(*)=O)cc3)cc2)c2ccccc12 (repeat unit)

row,glass transition temperature,Compound
1,267.50 °C,*Nc1cc(NC(=O)c2ccc(C(*)=O)cc2)cc(-c2nc3ccccc3[nH]2)c1 (repeat unit)
2,103.00 °C,*Nc1cc(NC(=O)c2ccc(C(*)=O)cc2)cc(-c2nc3ccccc3oc2=O)c1 (repeat unit)
3,178.00 °C,*Nc1cc(NC(=O)c2ccc(C(*)=O)cc2)cc(C(=O)Oc2ccc(-c3ccccc3)cc2)c1 (repeat unit)
4,192.00 °C,*Nc1cc(NC(=O)c2ccc(C(*)=O)cc2)cc(C(=O)Oc2cccc3ccccc23)c1 (repeat unit)
5,305.00 °C,*Nc1ccc(-c2c(-c3ccc(-c4ccccc4)cc3)cc(-c3ccc(-c4cc(-c5ccc(-c6ccccc6)cc5)c(-c5ccc(NC(=O)c6ccc(C(*)=O)cc6)cc5)c(-c5ccc(-c6ccccc6)cc5)c4)cc3)cc2-c2ccc(-c3ccccc3)cc2)cc1 (repeat unit)
6,290.00 °C,*Nc1ccc(-c2c(-c3ccccc3)cc(-c3ccc(-c4cc(-c5ccccc5)c(-c5ccc(NC(=O)c6ccc(C(*)=O)cc6)cc5)c(-c5ccccc5)c4)cc3)cc2-c2ccccc2)cc1 (repeat unit)
7,78.00 °C,*Nc1ccc(Cc2ccc(NC(=O)NCCCCCCNC(*)=O)cc2)cc1 (repeat unit)
8,-4.30 °C,*[O][Zn][O]C(=O)c1ccccc1C(=O)OCCCCCOC(=O)NCCCCCCNC(=O)OCCCCCOC(=O)c1ccccc1C(*)=O (repeat unit)
9,80.00 °C,*Oc1ccc(/N=C/C=N/c2ccc(OC(=O)NCCCCCCNC(*)=O)cc2)cc1 (repeat unit)
10,223.00 °C,*Oc1ccc(C2(c3ccc(Oc4c(F)c(F)c(C(=O)c5c(F)c(F)c(*)c(F)c5F)c(F)c4F)cc3)c3ccccc3-c3ccccc32)cc1 (repeat unit)
11,203.00 °C,*Oc1ccc(S(=O)(=O)c2ccc(Oc3ccc(C(=O)c4cc(I)cc(C(=O)c5ccc(*)cc5)c4)cc3)cc2)cc1 (repeat unit)
12,230.00 °C,*c1ccc(-c2ccc(NC(=O)c3cccc(C(=O)Nc4ccc(-c5ccc(N6C(=O)c7ccc(-c8ccc9c(c8)C(=O)N(*)C9=O)cc7C6=O)cc5)cc4)c3)cc2)cc1 (repeat unit)
13,185.00 °C,*c1ccc(C(=O)NCCCCCCCCNC(=O)c2ccc(-c3nc4ccccc4nc3*)cc2)cc1 (repeat unit)
14,237.00 °C,*c1ccc(C(=O)NNC(=O)c2ccc(C(=O)NNC(=O)c3ccc(C4(*)OC(=O)c5ccccc54)cc3)cc2)cc1 (repeat unit)
15,288.00 °C,*c1ccc(C(=O)Nc2ccc(-c3cc(Br)ccc3NC(=O)c3ccc(S(*)(=O)=O)cc3)cc2)cc1 (repeat unit)
16,258.00 °C,*c1ccc(Oc2ccc(C(=O)c3ccc(-c4ccc(C(=O)c5ccc(Oc6ccc(-c7nc(-c8ccccc8)[nH]c7*)cc6)cc5)cc4)cc3)cc2)cc1 (repeat unit)
17,302.00 °C,*c1ccc(Oc2ccc3ccccc3c2-c2c(Oc3ccc(N4C(=O)c5ccc(NC(=O)Nc6ccc(-c7cc(-c8ccc(-c9ccccc9)cc8)cc(-c8ccc(NC(=O)Nc9ccc%10c(c9)C(=O)N(*)C%10=O)cc8)n7)cc6)cc5C4=O)cc3)ccc3ccccc23)cc1 (repeat unit)
18,74.00 °C,*c1cccc(S(=O)(=O)NCCCCCNS(*)(=O)=O)c1 (repeat unit)
19,107.00 °C,*c1cccc(S(=O)(=O)NCCNS(*)(=O)=O)c1 (repeat unit)

row,Compound,glass transition temperature
1,*CCCCCCCNC(=O)N* (repeat unit),62.00 °C
2,*CCCCCOC(=O)c1ccccc1C(=O)[O][Pb][O]C(=O)c1ccccc1C(=O)OCCCCCOC(=O)NCCCCCCNC(=O)O* (repeat unit),-19.20 °C
3,*CCCCNC(=O)C(=O)N* (repeat unit),120.00 °C
4,*Nc1cccc2c(N[Se]*)cccc12 (repeat unit),53.00 °C
